Measurements taken from PubChem BioAssay AID330 (DTP/NCI, 2004).
Values joined by “and” are separate entries in the source; they are usually repeats but may differ in a detail not shown here. Equal values may be shown once. Inconclusive results and toxic doses are left out.

Test system: P388 leukemia ip, CD2F1 mice, survival T/C
Experiment: NCI In Vivo Anticancer Drug Screen. Data for tumor model P388 Leukemia (intraperitoneal) in CD2F1 (CDF1) mice
Settings: endpoint: median survival time, higher = longer survival
Procedure, shortened: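 Mice carrying the transplanted tumor received test compound or vehicle. Survival was recorded in each group, and the value is the treated-group measurement divided by that of the vehicle-treated control group.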

[1] = dose: 50.0 mg/kg/injection, schedule: Q01DX009 (ip), vehicle: saline sonified
[2] = dose: 50.0 mg/kg/injection, schedule: Q01DX005 (ip), vehicle: saline with Tween-80
[3] = dose: 100.0 mg/kg/injection, schedule: Q01DX005 (ip), vehicle: saline with Tween-80
[4] = dose: 200.0 mg/kg/injection, schedule: Q01DX005 (ip), vehicle: saline with Tween-80
[5] = dose: 50.0 mg/kg/injection, schedule: Q01DX005 (ip), vehicle: Klucel (hydroxypropylcellulose) (HPC)
[6] = dose: 100.0 mg/kg/injection, schedule: Q01DX005 (ip), vehicle: Klucel (hydroxypropylcellulose) (HPC)
[7] = dose: 200.0 mg/kg/injection, schedule: Q01DX005 (ip), vehicle: Klucel (hydroxypropylcellulose) (HPC)
[8] = dose: 100.0 mg/kg/injection, schedule: Q04DX003 (ip), vehicle: saline with Tween-80
[9] = dose: 200.0 mg/kg/injection, schedule: Q04DX003 (ip), vehicle: saline with Tween-80
[10] = dose: 6.25 mg/kg/injection, schedule: Q01DX009 (ip), vehicle: saline with Tween-80
[11] = dose: 12.5 mg/kg/injection, schedule: Q01DX009 (ip), vehicle: saline with Tween-80
[12] = dose: 25.0 mg/kg/injection, schedule: Q01DX009 (ip), vehicle: saline with Tween-80
[13] = dose: 60.0 mg/kg/injection, schedule: Q01DX005 (ip), vehicle: saline with Tween-80
[14] = dose: 120.0 mg/kg/injection, schedule: Q01DX005 (ip), vehicle: saline with Tween-80
[15] = dose: 50.0 mg/kg/injection, schedule: Q01DX009 (ip), vehicle: Klucel (hydroxypropylcellulose) (HPC)
[16] = dose: 100.0 mg/kg/injection, schedule: Q01DX009 (ip), vehicle: Klucel (hydroxypropylcellulose) (HPC)
[17] = dose: 200.0 mg/kg/injection, schedule: Q01DX009 (ip), vehicle: Klucel (hydroxypropylcellulose) (HPC)
[18] = dose: 50.0 mg/kg/injection, schedule: Q01DX009 (ip), vehicle: saline with Tween-80
[19] = dose: 100.0 mg/kg/injection, schedule: Q01DX009 (ip), vehicle: saline with Tween-80

O=C(C[n+]1cc2ccccc2cc1/C=N/O)c1ccccc1
T/C [1]: 100 % of control | T/C (dose: 100.0 mg/kg/injection, schedule: Q01DX009 (ip), vehicle: saline sonified): 100 % of control | T/C (dose: 200.0 mg/kg/injection, schedule: Q01DX009 (ip), vehicle: saline sonified): 86 % of control

O=C1C2C3C=CC(C3)C2C(=O)N1O (stereo not given)
T/C [2]: 101 % of control | T/C [3]: 100 % of control | T/C [4]: 100 % of control

C1CC2CC1C13OC1C1(CC1)C1OC213 (stereo not given)
T/C (dose: 100.0 mg/kg/injection, schedule: Q01DX001 (ip), vehicle: Klucel (hydroxypropylcellulose) (HPC)): 106 % of control and 123 % of control | T/C (dose: 200.0 mg/kg/injection, schedule: Q01DX001 (ip), vehicle: Klucel (hydroxypropylcellulose) (HPC)): 109 % of control | T/C (dose: 400.0 mg/kg/injection, schedule: Q01DX001 (ip), vehicle: Klucel (hydroxypropylcellulose) (HPC)): 157 % of control

Nc1cnc(CO)nc1C(=O)O
T/C (dose: 50.0 mg/kg/injection, schedule: Q01DX005 (ip), vehicle: saline): 100 % of control | T/C (dose: 100.0 mg/kg/injection, schedule: Q01DX005 (ip), vehicle: saline): 102 % of control | T/C (dose: 200.0 mg/kg/injection, schedule: Q01DX005 (ip), vehicle: saline): 107 % of control

COc1ccc2[nH]cc(CC(NC(C)=O)C(=O)O)c2c1 (stereo not given)
T/C [5]: 98 % of control | T/C [6]: 104 % of control | T/C [7]: 101 % of control

CCCCc1ccc(Sc2cccc3c2C(=O)c2c(Sc4ccc(CCCC)cc4)cccc2C3=O)cc1
T/C [8]: 95 % of control | T/C [9]: 90 % of control | T/C (dose: 400.0 mg/kg/injection, schedule: Q04DX003 (ip), vehicle: saline with Tween-80): 86 % of control

OC(c1cc2c(Cl)cc(Cl)cc2c2cc(C(F)(F)F)ccc12)C1CCCCN1 (stereo not given)
T/C [10]: 101 % of control | T/C [11]: 100 % of control | T/C [12]: 100 % of control

COc1ccc2nc(C)c3c(c2c1)C(=O)N(CCCN1CCN(CCCN2C(=O)c4c(C)nc5ccc(OC)cc5c4C2=O)CC1)C3=O
T/C (dose: 6.25 mg/kg/injection, schedule: Q01DX005 (ip), vehicle: Klucel (hydroxypropylcellulose) (HPC)): 93 % of control | T/C (dose: 12.5 mg/kg/injection, schedule: Q01DX005 (ip), vehicle: Klucel (hydroxypropylcellulose) (HPC)): 90 % of control | T/C (dose: 25.0 mg/kg/injection, schedule: Q01DX005 (ip), vehicle: Klucel (hydroxypropylcellulose) (HPC)): 96 % of control

Cc1ccn2c(=O)c(Br)c(C)nc2c1
T/C (dose: 100.0 mg/kg/injection, schedule: Q01DX001 (ip), vehicle: saline with Tween-80): 92 % of control | T/C (dose: 200.0 mg/kg/injection, schedule: Q01DX001 (ip), vehicle: saline with Tween-80): 94 % of control | T/C (dose: 400.0 mg/kg/injection, schedule: Q01DX001 (ip), vehicle: saline with Tween-80): 97 % of control

Cc1ccc2occ(-c3nnc(NC(=O)c4ccccc4)s3)c(=O)c2c1
T/C [13]: 93 % of control | T/C [14]: 86 % of control

CCOc1ccc(NC(=O)N(c2ccnc3ccccc23)C(C)CCCN(CC)CC)cc1 (stereo not given)
T/C [5]: 98 % of control | T/C [6]: 103 % of control | T/C [7]: 98 % of control

CP1(=S)C=C(N2CCOCC2)CC1 (stereo not given)
T/C [15]: 100 % of control | T/C [16]: 100 % of control | T/C [17]: 86 % of control

CCN(CC)CCNc1cccc2oc3ccc(OS(=O)(=O)c4ccc(C)cc4)cc3c(=O)c12
T/C [2]: 97 % of control | T/C [3]: 100 % of control | T/C [4]: 102 % of control

C=CCSc1nc2ccc(N3C(=O)CCC3=O)cc2s1
T/C (dose: 12.5 mg/kg/injection, schedule: Q01DX009 (ip), vehicle: Klucel (hydroxypropylcellulose) (HPC)): 105 % of control | T/C (dose: 25.0 mg/kg/injection, schedule: Q01DX009 (ip), vehicle: Klucel (hydroxypropylcellulose) (HPC)): 103 % of control | T/C [15]: 101 % of control and 102 % of control | T/C [16]: 92 % of control | T/C [17]: 89 % of control

O=C(CCn1[nH]c(=O)c(Cl)c(Cl)c1=O)NNc1ccc([N+](=O)[O-])cc1[N+](=O)[O-]
T/C [2]: 92 % of control | T/C [3]: 103 % of control | T/C [4]: 92 % of control

CC(C)CCCC(C)C1CCC2C3CC=C4CC(OC(=O)C56C=CC(=O)C5C5C=CC6CC5)CCC4(C)C3CCC12C (stereo not given)
T/C (dose: 1.56 mg/kg/injection, schedule: Q01DX005 (ip), vehicle: distilled water + Tween-80): 100 % of control | T/C (dose: 3.12 mg/kg/injection, schedule: Q01DX005 (ip), vehicle: distilled water + Tween-80): 90 % of control | T/C (dose: 200.0 mg/kg/injection, schedule: Q01DX005 (ip), vehicle: distilled water + Tween-80): 86 % of control

CCCCNc1nc(C(F)(F)F)nc2nc[nH]c12
T/C [5]: 103 % of control | T/C [6]: 94 % of control | T/C [7]: 94 % of control

C/C1=C(O[Si](C)(C)C)/C(O[Si](C)(C)C)=C(/C)CCCC1
T/C [18]: 100 % of control | T/C [19]: 94 % of control | T/C (dose: 200.0 mg/kg/injection, schedule: Q01DX009 (ip), vehicle: saline with Tween-80): 97 % of control

CN=C(NC)Nc1nc(-c2ccccc2)c(-c2ccccc2)[nH]1
T/C (dose: 12.5 mg/kg/injection, schedule: Q04DX002 (ip), vehicle: saline with Tween-80): 105 % of control | T/C (dose: 25.0 mg/kg/injection, schedule: Q04DX002 (ip), vehicle: saline with Tween-80): 100 % of control | T/C (dose: 50.0 mg/kg/injection, schedule: Q04DX002 (ip), vehicle: saline with Tween-80): 107 % of control

OCC1CCN(CCOCc2ccccc2)C1 (stereo not given)
T/C [13]: 94 % of control | T/C [14]: 102 % of control

CN(C)CCNc1ccc([N+](=O)[O-])c2sc3ccccc3c(=O)c12
T/C [11]: 114 % of control | T/C [19]: 103 % of control and 89 % of control

CC(C)N(C(=S)/N=C1/SCS(=O)(=O)N1C)C(C)C
T/C (dose: 50.0 mg/kg/injection, schedule: Q04DX003 (ip), vehicle: saline with Tween-80): 101 % of control | T/C [8]: 104 % of control | T/C [9]: 104 % of control

Cc1coc2c1C(O)C1(C)C(C)CCC(O)C1C2=O (stereo not given)
T/C (dose: 7.5 mg/kg/injection, schedule: Q01DX009 (ip), vehicle: saline with Tween-80): 101 % of control | T/C (dose: 15.0 mg/kg/injection, schedule: Q01DX009 (ip), vehicle: saline with Tween-80): 101 % of control | T/C (dose: 30.0 mg/kg/injection, schedule: Q01DX009 (ip), vehicle: saline with Tween-80): 101 % of control | T/C (dose: 60.0 mg/kg/injection, schedule: Q01DX009 (ip), vehicle: saline with Tween-80): 102 % of control

CCn1c2ccc([N+](=O)[O-])cc2c2c([N+](=O)[O-])c(-n3cccc3)ccc21
T/C [2]: 95 % of control | T/C [3]: 90 % of control | T/C [4]: 88 % of control

O=S(=O)(SC(Cl)(Cl)Cl)c1ccc(Cl)cc1
T/C (dose: 12.5 mg/kg/injection, schedule: Q01DX009 (ip), vehicle: saline sonified): 100 % of control | T/C (dose: 25.0 mg/kg/injection, schedule: Q01DX009 (ip), vehicle: saline sonified): 100 % of control | T/C [1]: 100 % of control

CN(C)CCN(C)CC(C)(C)C(=O)/C=C/c1ccccc1
T/C (dose: 60.0 mg/kg/injection, schedule: Q01DX005 (ip), vehicle: saline): 106 % of control | T/C (dose: 120.0 mg/kg/injection, schedule: Q01DX005 (ip), vehicle: saline): 107 % of control

O=C(N=Nc1c(Cl)c(O)c2ccccc2c1O)c1ccccc1O
T/C [10]: 100 % of control | T/C [11]: 108 % of control | T/C [12]: 106 % of control | T/C [18]: 104 % of control and 115 % of control

Nc1nc2nc(-c3ccccc3)nc(N)c2nc1C(=O)NN1CCCCC1
T/C (dose: 37.5 mg/kg/injection, schedule: Q01DX009 (ip), vehicle: saline with Tween-80): 100 % of control | T/C (dose: 75.0 mg/kg/injection, schedule: Q01DX009 (ip), vehicle: saline with Tween-80): 87 % of control | T/C (dose: 150.0 mg/kg/injection, schedule: Q01DX009 (ip), vehicle: saline with Tween-80): 100 % of control

CCCCC(CC)CN1CN2CN(CC(CC)CCCC)CC2(C)C1 (stereo not given)
T/C (dose: 12.5 mg/kg/injection, schedule: Q01DX005 (ip), vehicle: saline with Tween-80): 100 % of control | T/C (dose: 25.0 mg/kg/injection, schedule: Q01DX005 (ip), vehicle: saline with Tween-80): 105 % of control | T/C [2]: 104 % of control and 105 % of control

C/C(=C\Cl)CN(C)C
T/C [12]: 111 % of control | T/C [18]: 111 % of control | T/C [19]: 116 % of control
